Marks after values point to notes of the source that are not given here.
System: acetic acid-induced pain in mice
Test: Analgesia: acetic acid-induced writhing
Assay type: in vivo
Conditions: 0.15 g/kg intragastric once per day 7 days
Method: 40 mice, 20-22 g in weight, were randomly divided into 4 groups each having 10 mice, a baicalin (0.067 g/kg) group, a baicalin magnesium (equivalent to 0.067 g/kg of baicalin) group, a blank control group (administrated with normal saline), and an aspirin positive control group (0.15 g/kg). The mice were intragastrically administrated once per day for successive 7 days. After 30 minutes of final administration, the mice were intraperitoneally injected with 0.6% acetic acid saline solution at a dose of 0.2 mL/10 g; the number of writhing responses in the mice within 15 minutes was counted. Analgesia % was calculated as follows: Analgesia %=[(average number of writhing responses of the blank control group−average number of writhing responses of the drug administration group)/average number of writhing responses of the blank control group]×100%. Single-factor variance analysis was performed on data by the SPSS19.0 statistical software, and P<0.05 was of statistical significance.

SMILES: CC(=O)Oc1ccccc1C(=O)O [Positive Control, aspirin]
- Analgesia % (vs blank control): 83.3* %
- Number of writhing (writhing within 15 minutes after 0.6% acetic acid i.p.): 4.43 ± 3.21
